# Test results taken from PubChem BioAssay (NCI).
# Several values for one entry are separate records, joined by “and”; a condition that tells them apart may be missing. Identical values can stand only once.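 A five-concentration, 48-hour dose response in 96-well plates underlies each endpoint, interpolated linearly between surrounding concentrations. GI50 marks 50% less growth. TGI is the concentration that stops growth completely.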 *1 amine or outer side, *2 acyl side, *3 side chain or, on linkers, in order; H or OH if unused. Where a SMILES comes first, the peptide text is derived from it. Bridges are numbered along the chain shown (N, C = ends). Roman numbers before positions name the chains, in order. [ ]: non-standard residue; d: D form. Actinocin(1to9) = Cc1c2oc3c(C)ccc(C(=O)[*:2])c3nc-2c(C(=O)[*:1])c(N)c1=O; NMeV = CN[CH](C(=O)O)C(C)C; Sar = CNCC(=O)O
# Columns and labels:
# Experiment in all cases: DTP human tumour cell line panel, 48 h
# KM12 colon = system: KM12 colon
# SK-MEL-5 melanoma = system: SK-MEL-5 melanoma
# 786-0 renal = system: 786-0 renal
# HS 578T breast = system: HS 578T breast
# SR leukemia = system: SR leukemia
# U251 CNS = system: U251 CNS
# T-47D breast = system: T-47D breast
# MDA-N = system: MDA-N
# UACC-257 melanoma = system: UACC-257 melanoma
# UO-31 renal = system: UO-31 renal
# CAKI-1 renal = system: CAKI-1 renal
# OVCAR-3 ovarian = system: OVCAR-3 ovarian
# SF-295 CNS = system: SF-295 CNS
# HCC-2998 colon = system: HCC-2998 colon
# SK-MEL-2 melanoma = system: SK-MEL-2 melanoma
# SNB-19 CNS = system: SNB-19 CNS
# SK-MEL-28 melanoma = system: SK-MEL-28 melanoma
Compound,TGI (KM12 colon) [µM],TGI (SK-MEL-5 melanoma) [µM],TGI (786-0 renal) [µM],TGI (HS 578T breast) [µM],TGI (SR leukemia) [µM],TGI (U251 CNS) [µM],TGI (T-47D breast) [µM],TGI (MDA-N) [µM],TGI (UACC-257 melanoma) [µM],TGI (UO-31 renal),TGI (CAKI-1 renal) [µM],TGI (OVCAR-3 ovarian),TGI (SF-295 CNS) [µM],TGI (HCC-2998 colon) [µM],TGI (SK-MEL-2 melanoma) [µM],TGI (SNB-19 CNS),TGI (SK-MEL-28 melanoma) [µM],GI50 (UO-31 renal) [µM],GI50 (OVCAR-3 ovarian) [µM],GI50 (HCC-2998 colon) [µM]
O=C(O[C@H](/C=C/c1ccccc1)P1(=O)N(Cc2ccccc2)[C@H]2CCCC[C@@H]2N1Cc1ccccc1)c1ccccc1,18.1,4.1,> 100,> 100,> 100,88.7,3.86,> 100,> 100,38.3 µM,5.93,> 100 µM,> 100,> 100,6.19,> 100 µM,> 100,–,–,–
O=C(Cc1csc2[n+]1C(=O)/C(=C/c1ccc(Cl)cc1)S2)Nc1ccccc1,82.8,26.6,90.9,> 100,> 100,32.1,> 100,> 100,58.3,> 100 µM,> 100,27.7 µM,> 100,39.3,37,> 100 µM,> 100,–,–,–
COc1cc2c(SCCN(C)C)nc3ccccc3c2c2ccccc12,2.69,3.08,3.76,8.61,4.42,4.32,7.66,4.87,3.38,8.09 µM,3.87,7.79 µM,3.45,2.88,4.03,8.14 µM,3.17,–,–,–
O=S(=O)(N=[Se](=O)(c1ccccc1)c1ccccc1)c1ccccc1,> 100,> 100,> 100,> 100,> 100,> 100,> 100,> 100,–,> 100 µM,> 100,> 100 µM,> 100,> 100,> 100,> 100 µM,> 100,–,–,–
CC(NC1=NCCO1)c1ccsc1 (stereo not given),36.1,40.1,42.9,33.9,99.6,36.8,> 100,65.8,40.2,> 100 µM,> 100,80.3 µM,39.4,> 100,50.2,> 100 µM,43,–,–,–
Cc1cccc2c(N)c3cccc(C(=O)NCCNCCN)c3nc12,> 100,> 58.4,16.9,24.6,> 100,> 24.5,> 86.1,58.6,99.3,51.5 µM,79.9,> 93.7 µM,> 100,> 40.8,28.5,33.8 µM,36,–,–,–
C=CC(=O)C#Cc1cnc(OC)nc1OC,30,43.5,12.6,> 88.3,6.15,18.7,55.8,40.5,20.3,33.5 µM,21.1,33.7 µM,> 100,42.2,59.7,> 58.9 µM,> 47,–,–,–
"COc1ccc(CC2NC(=O)C(NC(=O)c3c4nc5c(C(=O)NC6C(=O)NC(Cc7ccc(OC)cc7)C(=O)N7CCCC7C(=O)N(C)CC(=O)N(C)C(C(C)C)C(=O)OC6C)ccc(C)c5oc-4c(C)c(=O)c3N)C(C)OC(=O)C(C(C)C)N(C)C(=O)CN(C)C(=O)C3CCCN3C2=O)cc1 (stereo not given) (I: TY(Me)P[Sar][NMeV] / II: TY(Me)P[Sar][NMeV]; ester I:1-I:C, II:1-II:C; linker I:N-II:N via Actinocin(1to9); configuration not given here)",1.06,0.0172,0.0253,0.265,< 0.001,–,0.0705,0.0876,0.0349,0.46 µM and 0.257 µM,0.306,0.025 µM and 0.0737 µM,> 100,–,0.00549,3.43 µM and 0.539 µM,–,0.0327,< 0.001,0.013
CCc1n[nH]c(=O)n1-n1c(C)ccc1C,> 100,> 100,> 100,> 100,> 100,> 100,> 100,> 100,> 100,> 100 µM,> 100,> 100 µM,> 100,> 100,> 100,> 100 µM,> 100,–,–,–
CC(=O)O[C@H]1[C@@H](OC2CCCC2(c2ccccc2)c2ccccc2)O[N+]([O-])=C[C@@H]1c1ccccc1 (stereo not given in full),23.4,25.6,3.26,20.5,> 20.3,27.3,> 37.9,15.6,23.6,23.6 µM,11,21 µM,21.7,27.2,24.1,29.7 µM,8.65,–,–,–
COC(=O)CSc1cc(Cl)c(C)cc1S(=O)(=O)Nc1n[nH]c(N)n1,> 10,> 10,> 10,> 10,> 10,> 10,> 10,> 10,> 10,> 10 µM,> 10,> 10 µM,> 10,> 10,> 10,> 10 µM,> 10,–,–,–
CCc1cccc(C(C)C)c1NC(=O)C(=O)Nn1c(=S)[nH]c2ccccc2c1=O,> 100,> 100,> 100,> 100,> 100,> 100,> 100,> 100,> 100,> 100 µM,> 100,> 100 µM,> 100,> 100,> 100,–,> 100,–,–,–
CC(=O)Nn1c(Cc2ccc(Cl)cc2)nn(C)c1=O,> 100,> 100,> 100,> 100,> 100,> 100,> 100,> 100,> 100,> 100 µM,> 100,> 100 µM,> 100,> 100,> 100,> 100 µM,> 100,–,–,–
Cc1c(CN2CCOCC2)c(CN2CCOCC2)c(C)n1-c1ccc(Cl)cn1,> 100,> 100,> 100,> 100,> 100,> 100,> 100,> 100,> 100,> 100 µM,> 100,> 100 µM,> 100,> 100,> 100,> 100 µM,> 100,–,–,–
COC1=CC(=O)C2=C(C1=O)[C@H]1CC[C@]3(C)C(=O)CC[C@H]3[C@@H]1CC2,> 100,33.2,53.2,70.5,> 100,> 100,57.2,65.1,58.7,56.8 µM,77,52.3 µM,> 100,> 100,36.3,> 100 µM,> 100,–,–,–
C#CC(O)/C=C/C(O)CCCC(O)CC#CC(O)C#CCCCCC(O)/C=C/CCCCCC(=O)CCCCCCCCCCCCCC(O)C(O)C#CC(=O)O (stereo not given),> 25,> 25,> 25,> 25,19.1,> 25,> 25,> 25,> 25,> 25 µM,> 25,–,> 25,> 25,> 25,> 25 µM,> 25,–,–,–
C=C(C)C1Cc2c(cc3c(c2O)c(=O)c2ccccc2n3C)O1 (stereo not given),5.75,8.02,2.91,28.7,4.95,12.7,21,12.2,30.7,4.01 µM,11.2,27.9 µM,18.2,28.3,26.7,12 µM,24.9,–,–,–
O=C(Oc1ccc(C(c2c(O)c3ccccc3oc2=O)c2c(O)c3ccccc3oc2=O)cc1)c1ccc(C(=O)c2ccccc2)cc1,30.8,75,> 100,> 100,55.7,54.7,> 100,> 100,33.9,31.6 µM,57.4,36.5 µM,51.3,36,35.2,37.2 µM,36.5,–,–,–
COc1cc2c(cc1OC)C1CN3CCCC3C(O)C1c1cc(OC)c(OC)cc1-2 (stereo not given),> 100,> 100,> 100,> 100,> 100,> 100,> 100,> 100,> 100,> 100 µM,> 100,–,> 100,> 100,> 100,> 100 µM,> 100,–,–,–
O=C1CC(=O)NC(=NN2C(=O)CSC2c2ccc(Cl)cc2)N1 (stereo not given),> 100,> 100,> 100,> 100,> 100,> 100,> 100,> 100,> 100,> 100 µM,> 100,> 100 µM,> 100,> 100,> 100,–,> 100,–,–,–
